Experimental data: US11007183B2, “Cancer treatments using combinations of PI3K/Akt pathway and ERK inhibitors” (BIOMED VALLEY DISCOVERIES, INC., priority 2013, dated 2021)
“Also recorded” adds a separate entry of the source.

Experiment: Toxicity (body weight, deaths, clinical signs) in the HCT116 xenograft study
Assay type: in vivo, mice
Conditions: for Deaths NTR / Deaths TR: po, 45 days
Description: Animals were weighed daily on Days 1-5, then twice per week until completion of the study. The mice were observed frequently for overt signs of any adverse, TR side effects, and clinical signs were recorded when observed. Individual BW loss was monitored as per protocol, and any animal whose weight exceeded the limits for acceptable BW loss was euthanized. Group mean BW loss also was monitored as per protocol. Dosing was to be suspended in any group that exceeded the limits for acceptable mean BW loss. If mean BW recovered, then dosing was to be resumed in that group, but at a lower dosage or less frequent dosing schedule. Acceptable toxicity for the maximum tolerated dose (MTD) was defined as a group mean BW loss of less than 20% during the study and not more than 10% TR deaths. A death was classified as TR if attributable to treatment side effects as evidenced by clinical signs and/or necropsy, or may also be classified as TR if due to unknown causes during the dosing period or within 14 days of the last dose. A death was classified as NTR if there was no evidence that death was related to treatment side effects. NTR deaths may be further characterized based on cause of death. A death was classified as NTRa if it resulted from an accident or human error. […] A death was classified as NTRu if the cause of death was unknown and there was no available evidence of death related to treatment side effects, metastasis, accident or human error, although death due to treatment side effects cannot be excluded.

With `CC(C)Nc1cc(-c2c[nH]c(C(=O)N[C@H](CO)c3cccc(Cl)c3)c2)c(Cl)cn1` [BVD-523] the “Tolerability relative to the MTD” value (Group 5: BVD-523 100 mg/kg p.o. bid to end, 100 mg/kg) was “above the MTD; also recorded: above the maximum tolerated dose”, the Adverse clinical signs (mouse, in vivo, 50 mg/kg) was “no noteworthy adverse clinical signs” and the “Deaths NTR” value (mouse, in vivo, 50 mg/kg) was 0. For the same compound, the “Deaths TR” value (mouse, in vivo, 50 mg/kg) was 0, the “Deaths NTR” value (mouse, in vivo, 100 mg/kg) was 0 and the “Deaths TR” value (mouse, in vivo, 100 mg/kg) was 4.
